Numbers after ± are expanded uncertainties.
Details: gamma-ray densimeter

Fc1c(F)c(F)c(F)c(F)c1F [hexafluorobenzene]
mass density (298.79 K, Liquid): 1605.4 ± 3 kg/m3
mass density (323.83 K, Gas): 2.3 kg/m3
mass density (323.83 K, Liquid): 1548.5 ± 3 kg/m3
mass density (343.88 K, Liquid): 1499.4 ± 3 kg/m3
mass density (363.85 K, Liquid): 1450.5 ± 3 kg/m3
mass density (383.91 K, Gas): 15.5 ± 3 kg/m3
mass density (383.91 K, Liquid): 1397.9 ± 3 kg/m3
mass density (403.92 K, Gas): 25.8 ± 3 kg/m3
mass density (403.92 K, Liquid): 1342.1 ± 3 kg/m3
mass density (423.93 K, Gas): 40.6 ± 3 kg/m3
mass density (423.93 K, Liquid): 1281.2 ± 3 kg/m3
mass density (443.9 K, Gas): 62.7 ± 3 kg/m3
mass density (443.9 K, Liquid): 1213.9 ± 3 kg/m3
mass density (463.89 K, Gas): 95.3 ± 3 kg/m3
mass density (463.89 K, Liquid): 1135.3 ± 3 kg/m3
mass density (483.9 K, Gas): 146.7 ± 3 kg/m3
mass density (483.9 K, Liquid): 1037.1 ± 3.1 kg/m3
mass density (493.93 K, Gas): 186 ± 3 kg/m3
mass density (493.93 K, Liquid): 974 ± 3.1 kg/m3
mass density (503.88 K, Gas): 243.5 ± 3.1 kg/m3
mass density (503.88 K, Liquid): 892.3 ± 3.1 kg/m3
mass density (508.9 K, Gas): 287 ± 3.2 kg/m3
mass density (508.9 K, Liquid): 835.8 ± 3.3 kg/m3
mass density (513.91 K, Gas): 363.5 ± 3.6 kg/m3
mass density (513.91 K, Liquid): 744.6 ± 3.7 kg/m3
mass density (513.92 K, Gas): 363.5 ± 3.6 kg/m3
mass density (513.92 K, Liquid): 746.3 ± 3.7 kg/m3
mass density (515.98 K, Gas): 433.7 ± 10 kg/m3
mass density (515.98 K, Liquid): 670.3 ± 11 kg/m3
mass density (516.28 K, Gas): 455.8 ± 10 kg/m3
mass density (516.28 K, Liquid): 644.8 ± 11 kg/m3
mass density (516.57 K, Gas): 491.5 ± 10 kg/m3
mass density (516.57 K, Liquid): 610.1 ± 11 kg/m3

From the NIST ThermoML archive (doi:10.1007/s10765-006-0092-8)
